Data reported in US20090197906A1, “REVERSION OF MALIGNANT PHENOTYPE WITH 9-HYDROXY ELLIPTICINE DERIVATIVES” (priority 2006, published 2009).

How the values were obtained:
[1] = system: NIH 3T3 EF; test: MTT cell proliferation assay; type: cell-based; conditions: 3 days, read-out: Cytotoxic effect (MTT) IC50
Description: (§1) Growth studies were performed using the [3-(4,5 dimethylthiazol-2-yl)-2,5-diphenyl-2H-tetrazolium bromide] (Sigma) calorimetric assay.
(§2) About 1500 to 5000 cells, according to the cell line, were seeded in a 96-well culture plate 24 hours before adding increasing concentrations of BA016DD537 or BA016FZ539. The plate was incubated at 37° C. for 3 days. 10 μl MTT stock solution (5 mg/ml in phosphate buffer saline) was added to 90 μl of complete medium in each well, the incubation was continued for 3 h at 37° C. 100 μl of lysis buffer (10% sodium dodecyl sulfate, 1% HCl 1N; pH 4.7) was added to each well, and the plate was incubated overnight. The absorbance was determined using an Integrated EIA Management System (Labsystem) at a wavelength of 570 nm. The proliferation rates were calculated from the OD readings using the untreated cells as 100%.

[2] = system: B16F10 melanoma cells; test: wound healing assay (cell motility); type: cell-based, murine; conditions: 50 nM
Description: Wound healing assay was performed to evaluate the effect of BA016DD537 on motility of malignant NIH 3T3 EF cells and melanoma cell lines B16F10 and B16BL6. All the cells were incubated at 37° C. in a humidified 5% CO2 atmosphere. About 100 000-200 000 cells were seeded in a 6-well culture plate and BA016DD537, at the different concentrations, was added 24 hours later. Cells were grown for 3 days to confluence about 90-95% and small scratch-wounds (about 200 μm-1 mm width) were made with a pipette tip. Cell debris were removed, then the cultures were incubated in complete medium for 10 h in the presence of the same concentration of BA016DD537. Then, the cells were fixed for 10 min in PBS containing 3.7% formaldehyde at 4° C.

[3] = system: B16F10 cell pulmonary metastases; test: antimetastatic activity, B16F10 pulmonary metastases after i.v. injection; type: in vivo, mice
Description: In order to assess the anti-invasive property, the effect of 2-(beta piperidino-2-ethyl)-9-hydroxyellipticinium methanesulfonate on this process has been tested.
100 μl of a B16F10 cellular suspension (4.10^5 cells) were injected using i.v. route into the retro-orbital sinus of the mice. The 2-(beta piperidino-2-ethyl)-9-hydroxyellipticinium methanesulfonate (BA016FZ539) solution was administrated i.v to mice 24 hours and 72 hours after cell injection at a dose of 5 mg/Kg (first experiment) and 7.5 mg/kg (second experiment). In control group, mice were injected iv with physiological serum. Seven days later, the mice were sacrificed, the lungs were excised and metastatic nodules were counted under a dissecting microscope.

[4] = system: NCI-H446; test: SRB (sulforhodamine B) cell proliferation assay; type: cell-based, human; conditions: NCI-H446, viability 72 h, mean +/− SEM
Description: Growth studies were performed using the Sulforhodamine B (SRB) calorimetric assay (Sigma).
SRB assay is used for cell density determination based on the measurement of cellular protein content. This method has been optimized for toxicity screening of compounds in adherent cells in a 96-well format (Skehan et al., Proc. Amer. Assoc. Cancer Res. 1989, 30:2436).
About 50 000 NCI-H510, NCI-H446 or NCI-H187 cells were seeded in a 96-well culture plate while adding increasing concentrations of BA016FZ539.
(§3) After an incubation period, cell monolayers are fixed with 10% (wt/vol) trichloroacetic acid and stained for 30 min, after which the excess dye is removed by washing repeatedly with 1% (vol/vol) acetic acid. The protein-bound dye is dissolved in 10 mM Tris base solution for optic density determination (OD) at 510 nm using a microplate reader.
(§4) The proliferation rates were calculated from the OD readings using the untreated cells as 100%.

[5] = system: Mia Paca-2; test: SRB (sulforhodamine B) cell proliferation assay; type: cell-based, human
Description: as §3, §4
(§5) The effects BA016FZ539 on the growth of MIA PaCa-2 and PANC-1 pancreatic cells were tested over a range of concentrations from 500 μM to 0.16 μM and measured by using the SRB calorimetric assay.
(§6) About 5000 MIA PaCa-2 or PANC-1 cells were seeded in a 96-well culture plate while adding increasing concentrations of BA016FZ539.
(§7) Growth studies were performed using both MTT and SRB calorimetric assay (Sigma). About 1500 B16F10 or 3000 pancreatic cells (MIA PaCa-2 and PANC1) were seeded in a 96-well culture plate before adding increasing concentrations of monomesylate or bimesylate.
(§8) The plates were incubated at 37° C. for 3 days and then were treated depending on SRB or MTT protocols (see material and methods).
(§9) In these two cases, the proliferation rates were calculated from the OD readings using the untreated cells as 100%.

[6] = system: PANC-1; test: SRB (sulforhodamine B) cell proliferation assay; type: cell-based, human
Description: as §3, §4, §5, §6, §7, §8, §9

[7] = system: SK-N-MC; test: MTT cell proliferation assay; type: cell-based; conditions: 3 days, read-out: Cytotoxic effect (MTT) IC50
Description: as §1, §2

[8] = system: B16BL6; test: MTT cell proliferation assay; type: cell-based; conditions: B16BL6, 3 days; read-out: Cytotoxic effect (MTT) IC50
Description: as §1, §2

[9] = system: 1205 Lu; test: MTT cell proliferation assay; type: cell-based, human; conditions: 3 days, read-out: Cytotoxic effect (MTT) IC50
Description: as §1, §2

[10] = system: Mia Paca-2; test: MTT cell proliferation assay; type: cell-based, human
Description: as §1, §2

[11] = system: SKMEL28; test: MTT cell proliferation assay; type: cell-based, human; conditions: SKMEL28, 3 days; read-out: Cytotoxic effect (MTT) IC50
Description: as §1, §2

[12] = system: A375; test: MTT cell proliferation assay; type: cell-based, human; conditions: A375, 3 days; read-out: Cytotoxic effect (MTT) IC50
Description: as §1, §2

[13] = system: C9; test: MTT cell proliferation assay; type: cell-based, human; conditions: C9, 3 days; read-out: Cytotoxic effect (MTT) IC50
Description: as §1, §2

[14] = system: HT144; test: MTT cell proliferation assay; type: cell-based, human; conditions: HT144, 3 days; read-out: Cytotoxic effect (MTT) IC50
Description: as §1, §2

[15] = system: 451 Lu; test: MTT cell proliferation assay; type: cell-based, human; conditions: 3 days, read-out: Cytotoxic effect (MTT) IC50
Description: as §1, §2

[16] = system: PANC-1; test: MTT cell proliferation assay; type: cell-based, human
Description: as §1, §2

`Cc1c2cc[n+](CCN3CCCCC3)cc2c(C)c2c1[nH]c1ccc(O)cc12.[Cl-]` [BA016DD537, 2-(β-piperidinoethyl)-9-hydroxyellipticinium chloride] was tested, and the IC50 [1] was 0.4 µM and the “inhibition of cell migration” value [2] was “complete inhibition”.
In the case of `CS(=O)(=O)[O-].Cc1c2cc[n+](CCN3CCCCC3)cc2c(C)c2c1[nH]c1ccc(O)cc12` [BA016FZ539, 2-(betapiperidino-2-ethyl)-9-hydroxyellipticinium methanesulfonate], the “Inhibition of pulmonary metastases development (% of control values)” value ([3]; Experiment 1, 5 mg/kg/inj. i.v. J1, J3, p = 0.0904) is reported as 21% (p = 0.0904), the “Inhibition of pulmonary metastases development (% of control values)” value ([3]; Experiment 2, 7.5 mg/kg/inj. i.v. J1, J3, p = 0.3269) is reported as 39.6% (p = 0.3269) and the IC50 [4] is reported as 22.4 µM. It also gave an IC50 ([5]; MIA PaCA-2, viability 72 h, mean +/− SEM (Example 9), read-out: IC50 (μM) SRB) of 10.2 µM, an IC50 ([5]; Mia Paca-2 (Example 11), read-out: IC50 (SRB Test-72 h)) of 5.6 µM and an IC50 ([6]; PANC-1 (Example 11), read-out: IC50 (SRB Test-72 h)) of 50.4 µM. It also gave an IC50 ([6]; PANC-1, viability 72 h, mean +/− SEM (Example 9), read-out: IC50 (μM) SRB) of 20.7 µM, an IC50 [7] of 0.84 µM and an IC50 [8] of 0.212 µM. For the same molecule, the IC50 [9] was 1.6 µM, the IC50 ([10]; MIA PaCA-2, viability 72 h, mean +/− SEM (Example 9), read-out: IC50 (μM) MTT) was 7.58 µM and the IC50 ([10]; Mia Paca-2, 3 days, read-out: Cytotoxic effect (MTT) IC50) was 7.6 µM. It also gave an IC50 [11] of 10.7 µM, an IC50 [12] of 2.9 µM and an IC50 [13] of 2.1 µM. For the same molecule, the IC50 [14] was 9 µM, the IC50 [15] was 4.2 µM and the IC50 ([16]; PANC-1, 3 days, read-out: Cytotoxic effect (MTT) IC50) was 22 µM. It also gave an IC50 ([16]; PANC-1, viability 72 h (Example 9), read-out: IC50 (μM) MTT) of 22 µM.
